# According to ChEMBL document CHEMBL4043116, “KBE009: An antimalarial bestatin-like inhibitor of the Plasmodium falciparum M1 aminopeptidase discovered in an Ugi multicomponent reaction-derived peptidomimetic library” (Bioorg Med Chem, 2017):
# The source made the active and inactive calls. Unless noted, no cut-off for these calls is given here.
# Key:
# Plasmodium falciparum [1] = test: (§1) Antimalarial activity against asynchronized chloroquine-resistant Plasmodium falciparum FcB1/Columbia assessed as reduction in [3H]-hypoxanthine incorporation by measuring parasite growth at 50 uM pretreated for 24 hrs followed by [3H]-hypoxanthine addition after 24 hrs by microbeta scintillation counting analysis relative to control; assay type: functional; parameters: scale not given: the % may be the effect or the level left
# Plasmodium falciparum [2] = test: as §1, with “5” for “50”; assay type: functional; parameters: scale not given: the % may be the effect or the level left
# Plasmodium falciparum [3] = test: Antimalarial activity against synchronized ring stage of […] Plasmodium falciparum 3D7 infected in human erythrocytes assessed as parasite growth at 25 uM after 72 hrs by YOYO-1 staining based flow cytometric analysis relative to control; assay type: functional
# Erythrocyte = test: Hemolytic activity against human erythrocytes at 25 uM measured after 48 hrs; assay type: ADME, cell-based
# Plasmodium falciparum [4] = test: Inhibition of recombinant Plasmodium falciparum M1 aminopeptidase assessed as residual activity at 20 uM using Ala-AMC as substrate pretreated for 30 mins followed by substrate addition by fluorescence assay relative to control
# Plasmodium falciparum [5] = test: Antimalarial activity against synchronized ring stage of […] Plasmodium falciparum 3D7 infected in human erythrocytes assessed as parasite growth at 25 uM after 48 hrs by Giemsa staining based microscopic analysis; assay type: functional, cell-based
# [6] = Selectivity index, ratio of Ki for recombinant Plasmodium falciparum M1 aminopeptidase to Ki for porcine kidney cortex aminopeptidase N
# Plasmodium falciparum [7] = test: Antimalarial activity against synchronized ring stage of […] Plasmodium falciparum 3D7 infected in human erythrocytes after 48 hrs by Giemsa staining based microscopic analysis; assay type: functional, cell-based; details: for IC50: 3D7, 48 h
# [8] = Inhibition of recombinant Plasmodium falciparum M1 aminopeptidase using Ala-AMC as substrate pretreated for 30 mins followed by substrate addition by fluorescence assay
# Aminopeptidase N = target: T1, Aminopeptidase N (Sus scrofa, UniProt P15145); test: Inhibition of porcine kidney cortex aminopeptidase N using Leu-p-nitroanilide as substrate pretreated for 30 mins followed by substrate addition […]
# T1 sequence (P15145 whole entry): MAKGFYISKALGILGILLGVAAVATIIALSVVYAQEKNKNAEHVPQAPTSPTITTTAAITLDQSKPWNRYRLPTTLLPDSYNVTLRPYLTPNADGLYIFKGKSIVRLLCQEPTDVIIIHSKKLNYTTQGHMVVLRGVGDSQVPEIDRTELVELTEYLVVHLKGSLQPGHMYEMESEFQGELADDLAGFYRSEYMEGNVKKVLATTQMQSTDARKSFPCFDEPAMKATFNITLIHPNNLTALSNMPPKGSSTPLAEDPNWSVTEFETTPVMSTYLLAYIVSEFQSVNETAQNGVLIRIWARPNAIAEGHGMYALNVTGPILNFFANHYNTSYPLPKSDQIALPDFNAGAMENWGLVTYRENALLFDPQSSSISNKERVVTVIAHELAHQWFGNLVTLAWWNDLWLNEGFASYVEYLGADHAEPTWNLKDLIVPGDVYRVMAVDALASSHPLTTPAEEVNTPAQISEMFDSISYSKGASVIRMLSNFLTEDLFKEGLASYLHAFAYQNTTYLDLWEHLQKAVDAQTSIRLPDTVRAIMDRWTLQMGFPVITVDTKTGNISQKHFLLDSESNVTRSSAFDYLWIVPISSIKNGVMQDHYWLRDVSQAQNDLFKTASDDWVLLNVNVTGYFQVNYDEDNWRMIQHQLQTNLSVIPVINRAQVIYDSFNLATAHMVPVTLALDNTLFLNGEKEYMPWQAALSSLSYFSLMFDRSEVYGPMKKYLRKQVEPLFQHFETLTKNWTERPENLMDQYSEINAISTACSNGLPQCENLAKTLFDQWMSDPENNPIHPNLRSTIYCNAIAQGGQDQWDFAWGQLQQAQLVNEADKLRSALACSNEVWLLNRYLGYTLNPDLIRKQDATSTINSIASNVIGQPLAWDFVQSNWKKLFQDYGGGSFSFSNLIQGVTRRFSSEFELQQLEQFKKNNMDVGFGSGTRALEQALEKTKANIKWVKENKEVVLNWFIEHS
# Plasmodium falciparum [9] = test: Antimalarial activity against asynchronized chloroquine-resistant Plasmodium falciparum FcB1/Columbia assessed as reduction in [3H]-hypoxanthine incorporation pretreated for 24 hrs followed by [3H]-hypoxanthine addition after 24 hrs by microbeta scintillation counting analysis; assay type: functional
# Plasmodium falciparum [10] = test: Inhibition of Plasmodium falciparum M1 aminopeptidase at 200 uM using Ala-AMC as substrate by spectrofluorimetric assay
# Plasmodium falciparum [11] = test: Antimalarial activity against synchronized ring stage of […] Plasmodium falciparum 3D7 infected in human erythrocytes assessed as parasite growth at 1 uM after 72 hrs by YOYO-1 staining based flow cytometric analysis relative to control; assay type: functional
# [12] = Inhibition of Plasmodium falciparum M1 aminopeptidase using Ala-AMC as substrate by spectrofluorimetric assay
# [13] = target: T2, Aminopeptidase N (Sus scrofa) (UniProt P15145); test: Inhibition of porcine kidney cortex aminopeptidase N up to 100 uM using Leu-p-nitroanilide as substrate […]
# T2 sequence (whole entry): T1 sequence (P15145 whole entry)
# HUVEC = test: Cytotoxicity against HUVEC assessed as reduction in cell viability up to 200 uM by MTT assay; assay type: cell-based; details: human
# Plasmodium falciparum [14] = test: Inhibition of Plasmodium falciparum M1 aminopeptidase at 20 uM using Arg-AMC as substrate measured after 5 mins by fluorescence assay relative to control
SMILES,Activity (Plasmodium falciparum [1]),Activity (Plasmodium falciparum [2]),Activity (Plasmodium falciparum [3]),Activity (Erythrocyte),Activity (Plasmodium falciparum [4]),Activity (Plasmodium falciparum [5]),further results
CC(C)C[C@@H](C(=O)O)N(C(=O)[C@@H](N)Cc1ccccc1)C(C(=O)NCC(=O)O)c1ccccc1 (stereo partly specified),89 - 97.5%,97 - 99%,88%,Non-Toxic,73%,Active,–
CC(C)C[C@@H](C(=O)O)N(CC(=O)NC(C)(C)C)C(=O)[C@@H](N)Cc1ccccc1,48.1 - 79.5%,87.5 - 91.5%,45%,Non-Toxic,97%,Active,–
O=C(CN[C@@H](Cc1ccccc1)C(=O)O)NC1CCCCC1,21.5 - 56%,84.5 - 99%,53%,Non-Toxic,48%,Active,Ratio Ki [6]: 3.4; IC50 (Plasmodium falciparum [7]): 37 µM; Ki [8]: 6.1 µM; Ki (Aminopeptidase N): 21 µM; IC50 (Plasmodium falciparum [9]): 29 µM
COc1ccc(C(N[C@@H](CC(C)C)C(=O)O)C(=O)NC2CCCCC2)cc1OC (stereo partly specified),–,–,41%,Non-Toxic,98%,Active,–
CC(C)C[C@@H](C(=O)O)N(C(=O)[C@@H](N)Cc1ccccc1)C(C(=O)NC(C)(C)C)c1ccccc1 (stereo partly specified),2 - 2.5%,49 - 100%,30%,Non-Toxic,69%,Active,inhibition (Plasmodium falciparum [10]): inactive
O=C(NC1CCCCC1)C(c1cccnc1)N1CCC[C@H]1C(=O)O (stereo partly specified),–,–,83%,Non-Toxic,99%,Active,–
CC(C)C[C@@H](C(=O)O)N(C(=O)[C@@H](N)Cc1ccccc1)C(C(=O)NC(C)(C)C)c1cccnc1 (stereo partly specified),1 - 11.5%,16 - 99%,86%,Non-Toxic,64%,Active,–
O=C(CN1CCC[C@H]1C(=O)O)NC1CCCCC1,–,–,82%,Non-Toxic,98%,Active,–
COc1ccc(C(C(=O)NC(C)(C)C)N(C(=O)[C@@H](N)Cc2ccccc2)[C@@H](CC(C)C)C(=O)O)cc1OC (stereo partly specified),42.5 - 99%,56 - 99%,95%,Non-Toxic,48%,Active,–
CC[C@H](C)[C@H](NC(C(=O)NC1CCCCC1)c1ccccc1)C(=O)O (stereo partly specified),39.5 - 41.5%,84.5 - 92.5%,77%,Non-Toxic,96%,Active,–
CC(C)C[C@@H](C(=O)O)N(CC(=O)NCc1ccccc1)C(=O)[C@@H](N)Cc1ccccc1,79 - 100%,91 - 93.5%,89%,Non-Toxic,91%,Active,–
CCN(CC)CCCC(C)Nc1ccnc2cc(Cl)ccc12 (stereo unspecified) [CHLOROQUINE],–,–,–,–,–,–,Activity (Plasmodium falciparum [11]): 25.9%
CC(C)C[C@H](NCC(=O)NC1CCCCC1)C(=O)O,69 - 90%,97 - 99%,60%,Non-Toxic,96%,Active,–
CC(C)C[C@@H](C(=O)O)N(C(=O)[C@@H](N)Cc1ccccc1)C(C(=O)NC(C)(C)C)c1ccco1 (stereo partly specified),81.5 - 95%,94.5 - 99%,96%,Non-Toxic,42%,Active,–
CC(C)C[C@H](NC(C(=O)NC1CCCCC1)c1ccccc1)C(=O)O (stereo partly specified),15.5 - 23%,85.5 - 93%,82%,Non-Toxic,40%,Active,–
O=C(NC1CCCCC1)C(c1ccccc1)N1CCC[C@H]1C(=O)O (stereo partly specified),–,–,90%,Non-Toxic,100%,Active,–
CC(C)C[C@@H](C(=O)O)N(C(=O)[C@@H](N)Cc1ccccc1)C(C(=O)NCc1ccccc1)c1ccccc1 (stereo partly specified),39 - 55.5%,65 - 90%,66%,Non-Toxic,83%,Active,–
O=C(CN[C@@H](Cc1ccccc1)C(=O)O)NCc1ccccc1,–,–,38%,Non-Toxic,23%,Active,inhibition (Plasmodium falciparum [7]): Active; Ki [8]: 0.9 µM
CC(C)C[C@H](N)C(=O)N(CC(=O)NCc1ccccc1)[C@H](C(=O)O)C(C)C,67 - 78%,76.5 - 79%,65%,Non-Toxic,85%,Active,–
CC(C)C[C@@H](C(=O)O)N(C(=O)[C@@H](N)Cc1ccccc1)C(C(=O)NCc1ccccc1)c1ccco1 (stereo partly specified),2.5 - 4.5%,83.5 - 93.5%,54%,Non-Toxic,48%,Active,Ratio Ki [6]: > 250; IC50 [12]: 82 µM; inhibition [13]: inactive; IC50 (Plasmodium falciparum [7]): 18 µM; Ki [8]: 0.4 µM; Activity (HUVEC): Non-Toxic; IC50 (Plasmodium falciparum [9]): 16 µM
CC(C)C[C@H](NC(C(=O)NC1CCCCC1)c1cccnc1)C(=O)O (stereo partly specified),–,–,96%,Non-Toxic,94%,Active,–
O=C(CN[C@@H](Cc1c[nH]c2ccccc12)C(=O)O)NC1CCCCC1,31 - 39.5%,83 - 92.5%,43%,Non-Toxic,29%,Active,Ratio Ki [6]: 5.6; IC50 (Plasmodium falciparum [7]): 25 µM; Ki [8]: 4.3 µM; Ki (Aminopeptidase N): 24 µM; IC50 (Plasmodium falciparum [9]): 37 µM
CC[C@H](C)[C@H](NCC(=O)NC1CCCCC1)C(=O)O,1.5 - 4.5%,79.5 - 86.5%,93%,Non-Toxic,100%,Active,–
CC(C)C[C@H](NC(=O)[C@@H](O)[C@H](N)Cc1ccccc1)C(=O)O [UBENIMEX],–,–,36%,Non-Toxic,1.2%,–,IC50 [12]: < 0.31 µM; IC50 (Plasmodium falciparum [7]): 21 µM; inhibition (Plasmodium falciparum [14]): 50%; Ki [8]: < 0.16 µM; IC50 (Plasmodium falciparum [9]): 3.3 µM
O=C(NC1CCCCC1)C(N[C@@H](Cc1ccccc1)C(=O)O)c1ccccc1 (stereo partly specified),–,–,42%,Non-Toxic,24%,Active,IC50 (Plasmodium falciparum [7]): 26 µM; Ki [8]: 1.9 µM
CC(C)C[C@H](N)C(=O)N(CC(=O)NC(C)(C)C)[C@@H](Cc1ccccc1)C(=O)O,71 - 83.5%,92.5 - 99%,87%,Non-Toxic,61%,Active,–
